In patent US20200108070A2, “INHIBITORS OF FIBROBLAST GROWTH FACTOR RECEPTOR AND USE THEREOF” (Nanjing TransThera Biosciences Co. Ltd., priority 2016, published 2020) one finds IC50 data, which are given here for 22 compounds.

pIC50: −log10 of the molar value.

One assay deals with FGFR1 (Homo sapiens, UniProt P11362). The assay is described as follows: Enzymatic activity test (LabChip EZ Reader II / Caliper), FGFR1. The format is biochemical. The conditions noted are these: FGFR1(h), FAM-labelled polypeptide substrate and ATP, 30 min incubation; read-out: Inhibitory activity against FGFR (IC50) FGFR1. The method, then: (§1) Experimental Example 1: Enzymatic Activity Test of the Compounds of the Present Invention
Chain of FGFR1 (P11362 22-822): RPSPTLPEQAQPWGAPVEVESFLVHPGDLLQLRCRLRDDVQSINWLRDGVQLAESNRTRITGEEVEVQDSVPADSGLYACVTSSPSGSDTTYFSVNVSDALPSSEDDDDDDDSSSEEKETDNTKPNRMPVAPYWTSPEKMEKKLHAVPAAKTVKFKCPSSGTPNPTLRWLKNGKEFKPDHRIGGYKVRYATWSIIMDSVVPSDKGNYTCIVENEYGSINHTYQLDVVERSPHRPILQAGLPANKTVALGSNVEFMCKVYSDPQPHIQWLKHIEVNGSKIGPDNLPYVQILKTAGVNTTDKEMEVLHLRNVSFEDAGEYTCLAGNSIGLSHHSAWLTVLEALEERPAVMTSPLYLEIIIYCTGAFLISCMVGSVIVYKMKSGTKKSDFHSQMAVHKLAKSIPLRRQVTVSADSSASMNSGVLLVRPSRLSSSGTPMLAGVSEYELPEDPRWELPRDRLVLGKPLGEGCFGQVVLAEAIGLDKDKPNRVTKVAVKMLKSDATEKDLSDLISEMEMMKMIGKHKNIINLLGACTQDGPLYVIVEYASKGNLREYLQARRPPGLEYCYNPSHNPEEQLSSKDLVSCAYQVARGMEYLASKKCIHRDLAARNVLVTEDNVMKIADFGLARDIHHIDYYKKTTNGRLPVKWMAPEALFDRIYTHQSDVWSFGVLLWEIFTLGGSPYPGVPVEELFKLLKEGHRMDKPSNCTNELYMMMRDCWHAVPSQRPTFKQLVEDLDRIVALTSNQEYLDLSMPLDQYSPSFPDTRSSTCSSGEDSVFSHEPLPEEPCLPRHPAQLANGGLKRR
(§2) Test substance: The compounds of the present invention, the structures of which are shown above.
(§3) Test Instrument: The LabChip EZ Reader II drug screening platform.
(§4) 1. Preparation for compound plate a) 96-well plates, 10 dose groups, 3-fold serial dilutions, added DMSO to each well, maximal concentration of 500 μM. b) 384-well plates, diluted with 1× kinase buffer (50 mM HEPES, pH 7.5; 0.0015% Brij-35; 2 mM DTT), each well containing 5× compound dissolved in 5 μL of 10% DMSO. The negative control well was 5 μL of 1× kinase buffer containing 10% DMSO. 2. Experimental procedure
(§5) […] in 1× kinase buffer were reacted with 2.5× enzyme solution at room temperature for 10 min, and then the FAM-labelled polypeptide substrate and ATP were added to initiate reaction. After incubation for 30 min, 25 μL of terminal solution (100 mM HEPES, pH 7.5; 0.015% Brij-35; 0.2% Coating Reagent #3; 50 mM EDTA) was added to terminate the reaction, and the final data were read by Caliper.

The next assay concerns the target FGFR4 (Homo sapiens, UniProt P22455). The assay is described as follows: Enzymatic activity test (LabChip EZ Reader II / Caliper), FGFR4. The conditions noted are these: FGFR4(h), FAM-labelled polypeptide substrate and ATP, 30 min incubation; read-out: Inhibitory activity against FGFR (IC50) FGFR4. Format: biochemical. As for the experimental part: as §1, §2, §3, §4, §5

A further assay deals with RT112/84. The assay is described as follows: Cellular activity test (Cell titer-Glo), RT112/84. The format is cell-based. The conditions noted are these: Homo sapiens, RT112/84, bladder cancer cell with abnormal FGFR, 72 h, read-out: Inhibitory activity against cells (IC50) RT112/84.
Excerpt: (§6) Experimental Example 2: Celluar Activity Test of the Compounds of the Present Invention
(§7) Hep3B is a cell with abnormal FGFR in hepatocellular carcinoma RT112/84 is a cell with abnormal FGFR in bladder cancer DMS114 is a cell with abnormal FGFR in small cell lung cancer AN3CA is a cell with abnormal FGFR in endometrial cancer SNU-16 is a cell with abnormal FGFR in gastric cancer
as §2
(§8) Test instrument: The Espire multi-function microplate reader.
(§9) Each cell line was seeded into a 96-well plate, and adherent cultured overnight. Then, the compounds at different concentrations (12 dose groups, 3× DMSO serial dilutions) were added to a final concentration of 0.17-30000 nM, with the final content of DMSO of 5‰. The negative control well was medium containing 5‰ DMSO. After incubation at 37° C., 5% CO2, 95% humidity for 72 h, the cultures would be test. 30 μL of Cell titer-Glo reagent was added to each well and incubated for 30 min at room temperature. The final data were read by Espire microplate reader.
A general note: Cellular ATP, detected with luciferase, serves as a proxy for viable cell number.

For the next assay, the system named is AN3CA. The assay is described as follows: Cellular activity test (Cell titer-Glo), AN3CA. Format: cell-based. To be noted: Homo sapiens, AN3-CA, endometrial cancer cell with abnormal FGFR, 72 h, read-out: Inhibitory activity against cells (IC50) AN3CA.
Excerpt: as §6, §7, §2, §8, §9

For another assay, the system named is Hep3B. The assay is described as follows: Cellular activity test (Cell titer-Glo), Hep3B. The format is cell-based. To be noted: Homo sapiens, hepatocellular carcinoma cell with abnormal FGFR, 72 h, read-out: Inhibitory activity against cells (IC50) Hep3B.
Excerpt: as §6, §7, §2, §8, §9

The subject of a further assay is DMS114. The assay is described as follows: Cellular activity test (Cell titer-Glo), DMS114. Format: cell-based. To be noted: Homo sapiens, DMS-114, DMS114, small cell lung cancer cell with abnormal FGFR, 72 h, read-out: Inhibitory activity against cells (IC50) DMS114.
Excerpt: as §6, §7, §2, §8, §9

The next assay deals with FGFR3 (Homo sapiens, UniProt P22607). The assay is described as follows: Enzymatic activity test (LabChip EZ Reader II / Caliper), FGFR3. To be noted: FGFR3(h), FAM-labelled polypeptide substrate and ATP, 30 min incubation; read-out: Inhibitory activity against FGFR (IC50) FGFR3. The format is biochemical. As for the experimental part: as §1, §2, §3, §4, §5
Chain of FGFR3 (P22607 23-806): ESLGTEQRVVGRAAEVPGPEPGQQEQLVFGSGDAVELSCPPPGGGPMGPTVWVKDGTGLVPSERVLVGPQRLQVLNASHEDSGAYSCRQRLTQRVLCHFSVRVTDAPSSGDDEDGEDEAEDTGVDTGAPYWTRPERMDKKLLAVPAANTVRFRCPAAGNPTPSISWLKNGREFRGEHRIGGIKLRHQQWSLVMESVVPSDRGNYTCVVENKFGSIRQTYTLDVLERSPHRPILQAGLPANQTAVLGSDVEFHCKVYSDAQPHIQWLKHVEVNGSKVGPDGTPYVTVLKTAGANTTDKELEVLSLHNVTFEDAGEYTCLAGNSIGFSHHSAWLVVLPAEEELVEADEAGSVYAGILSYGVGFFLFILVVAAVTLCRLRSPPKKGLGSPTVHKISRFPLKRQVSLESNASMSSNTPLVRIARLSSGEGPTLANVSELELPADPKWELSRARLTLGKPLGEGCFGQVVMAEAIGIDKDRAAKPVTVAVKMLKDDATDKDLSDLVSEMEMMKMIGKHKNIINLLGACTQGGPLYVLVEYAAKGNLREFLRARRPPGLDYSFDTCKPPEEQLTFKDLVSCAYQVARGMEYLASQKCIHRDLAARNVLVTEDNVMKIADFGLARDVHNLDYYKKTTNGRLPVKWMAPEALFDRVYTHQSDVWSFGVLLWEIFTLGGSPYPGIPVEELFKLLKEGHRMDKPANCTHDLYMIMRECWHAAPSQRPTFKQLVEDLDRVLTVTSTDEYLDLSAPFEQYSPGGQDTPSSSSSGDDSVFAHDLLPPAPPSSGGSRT

Chain of FGFR4 (P22455 22-802): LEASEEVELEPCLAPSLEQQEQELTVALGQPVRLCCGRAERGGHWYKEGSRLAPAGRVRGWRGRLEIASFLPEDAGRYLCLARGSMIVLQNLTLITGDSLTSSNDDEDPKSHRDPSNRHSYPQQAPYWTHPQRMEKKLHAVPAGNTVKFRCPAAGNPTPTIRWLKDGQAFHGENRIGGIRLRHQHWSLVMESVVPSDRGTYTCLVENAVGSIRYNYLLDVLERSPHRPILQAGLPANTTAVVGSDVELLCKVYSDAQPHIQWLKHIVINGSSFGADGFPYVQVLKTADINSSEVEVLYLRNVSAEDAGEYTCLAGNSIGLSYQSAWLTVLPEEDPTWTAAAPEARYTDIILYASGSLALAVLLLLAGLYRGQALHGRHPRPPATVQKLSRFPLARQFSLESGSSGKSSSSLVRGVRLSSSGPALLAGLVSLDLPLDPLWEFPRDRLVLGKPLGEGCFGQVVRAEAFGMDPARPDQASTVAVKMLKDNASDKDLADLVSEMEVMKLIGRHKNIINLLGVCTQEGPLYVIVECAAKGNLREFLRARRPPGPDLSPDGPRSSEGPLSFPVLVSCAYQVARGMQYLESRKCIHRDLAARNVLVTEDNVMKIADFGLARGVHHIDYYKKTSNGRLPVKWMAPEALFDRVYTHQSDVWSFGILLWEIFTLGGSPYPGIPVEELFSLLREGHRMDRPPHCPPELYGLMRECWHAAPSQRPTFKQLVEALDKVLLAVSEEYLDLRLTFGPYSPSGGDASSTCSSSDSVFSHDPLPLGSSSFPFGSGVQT

Regarding `C=CC(=O)N1C[C@@H]2C[C@H]1[C@@H]2Nc1ncc2cc(-c3c(Cl)c(OC)cc(OC)c3Cl)ccc2n1` (relative stereo) [Compound 11, 1-(trans-5-((6-(2,6-dichloro-3,5-dimethoxyphenyl)quinazolin-2-yl)amino)-2-azabicyclo[2.1.1]hexane-2-yl)prop-2-en-1-one], the pIC50 is 7.68 on FGFR1 and 6.70 on FGFR4.

As for `C=CC(=O)N1C[C@@H](Nc2ncc3cc(-c4c(Cl)c(OC)cc(OC)c4Cl)ccc3n2)C[C@H]1C(C)(C)O` (stereo in doubt) [Compound 31, 1-((2R,4R)-4-((6-(2,6-dichloro-3,5-dimethoxyphenyl)quinazolin-2-yl)amino)-2-(2-hydroxypropyl-2-yl)pyrrolidin-1-yl)prop-2-en-1-one], the pIC50 on FGFR1 is 8.43; on FGFR4 it was 6.99; with RT112/84 it was 7.15; in the assay on AN3CA it was 6.93; with Hep3B it was 7.34; in the assay with DMS114, 7.60.

Take `C=CC(=O)N1C[C@@H](Nc2ncc3cc(-c4c(Cl)c(OC)cc(OC)c4Cl)ccc3n2)C2(CC2)C1` (stereo in doubt) [Compound 66]: the figures for the pIC50 at FGFR1 and at FGFR4 were 7.82 and 6.50, respectively.

For `C=CC(=O)N1CCCC(Nc2ncc3cc(-c4c(Cl)c(OC)cc(OC)c4Cl)ccc3n2)C1` (stereo not shown) [Compound 1], the pIC50 at FGFR4 was 6.82.

As for `C=CC(=O)N1CC[C@@H](Nc2ncc3cc(-c4c(Cl)c(OC)cc(OC)c4Cl)ccc3n2)C1` [Compound 6, (R)-1-(3-((6-(2,6-dichloro-3,5-dimethoxyphenyl)quinazolin-2-yl)amino)pyrrolidin-1-yl)prop-2-en-1-one], the pIC50 was above 8.52 on FGFR1, 6.11 at FGFR4 and 7.74 on FGFR3.

As to `C=CC(=O)N1CC(Nc2ncc3cc(-c4c(Cl)c(OC)cc(OC)c4Cl)ccc3n2)C1` [Compound 9], the results for the pIC50 at FGFR1, on FGFR4 and on FGFR3 were above 8.52, 6.52 and 8.10, respectively.

As to `C=CC(=O)N1CCC(Nc2ncc3cc(-c4c(Cl)c(OC)cc(OC)c4Cl)ccc3n2)CC1` [Compound 10, 1-(4-((6-(2,6-dichloro-3,5-dimethoxyphenyl)quinazolin-2-yl)amino)piperidin-1-yl)prop-2-en-1-one], the pIC50 is above 8.52 on FGFR1, 6.75 on FGFR4 and 8.15 on FGFR3.

As to `C=CC(=O)N1C[C@@H](Nc2ncc3cc(-c4c(Cl)c(OC)cc(OC)c4Cl)ccc3n2)C[C@H]1C` [Compound 21, 1-((2R,4S)-4-((6-(2,6-dichloro-3,5-dimethoxyphenyl)quinazolin-2-yl)amino)-2-methylpyrrolidin-1-yl)propyl-2-en-1-one], the pIC50 was 8.10 on FGFR1, 6.48 at FGFR4, 7.27 in the assay with RT112/84 and 6.75 in the assay with AN3CA.

On to `C=CC(=O)N1C[C@@H](Nc2ncc3cc(-c4c(Cl)c(OC)cc(OC)c4Cl)ccc3n2)C[C@H]1CC#N` [Compound 27, 2-((2S,4S)-1-acryloyl-4-((6-(2,6-dichloro-3,5-dimethoxyphenyl)quinazolin-2-yl)amino)pyrrolidin-2-yl)acetonitrile], for which the pIC50 at FGFR1 was 7.74; at FGFR4, 6.58; in the assay with RT112/84, 6.90; with Hep3B, 7.09; with DMS114 it was 7.14.

Consider `C=CC(=O)N1C[C@@H](Nc2ncc3cc(-c4c(Cl)c(OC)cc(OC)c4Cl)ccc3n2)C[C@H]1C(=O)N(C)C` [Compound 30, (2S,4S)-1-acryloyl-4-((6-(2,6-dichloro-3,5-dimethoxyphenyl)quinazolin-2-yl)amino)-N,N-dimethylpyrrolidin-2-carboxamide], for which the pIC50 on FGFR1 was 8.05; on FGFR4 it was 6.18; in the assay with RT112/84 it was 6.93; in the assay with Hep3B it was 7.11.

As for `C=CC(=O)N1C[C@@H](Nc2ncc3cc(-c4c(Cl)c(OC)cc(OC)c4Cl)ccc3n2)C[C@H]1CNC(C)=O` [Compound 32, N-(((2S,4S)-1-acryloyl-4-((6-(2,6-dichloro-3,5-dimethoxyphenyl)quinazolin-2-yl)amino)pyrrolidin-2-yl)methyl)acetamide], the pIC50 was 7.11 with RT112/84, 6.78 in the assay on AN3CA, 6.83 in the assay on Hep3B and 7.32 in the assay with DMS114.

For `C=CC(=O)N1C[C@@H](Nc2ncc3cc(-c4c(Cl)c(OC)cc(OC)c4Cl)ccc3n2)C[C@H]1CNS(C)(=O)=O` [Compound 33, N-(((2S,4S)-1-acryloyl-4-((6-(2,6-dichloro-3,5-dimethoxyphenyl)quinazolin-2-yl)amino)pyrrolidin-2-yl)methyl)methanesulfonamide], the pIC50 is 7.19 in the assay on RT112/84, 6.83 with AN3CA, 7.12 with Hep3B and 7.47 in the assay on DMS114.

In the case of `C=CC(=O)N1C[C@@H](Nc2ncc3cc(-c4c(Cl)c(OC)cc(OC)c4Cl)ccc3n2)C[C@H]1C(=O)N1CCC1` [Compound 35, 1-((2S,4S)-2-(azetidine-1-carbonyl)-4-((6-(2,6-dichloro-3,5-dimethoxyphenyl)quinazolin-2-yl)amino)pyrrolidin-1-yl)prop-2-en-1-one], the pIC50 in the assay with RT112/84 is 7.22; in the assay with AN3CA it was 6.95; in the assay on Hep3B, 7.02; in the assay on DMS114 it was 7.28.

`C=CC(=O)N1C[C@@H](Nc2ncc3cc(-c4c(Cl)c(OC)cc(OC)c4Cl)ccc3n2)C[C@H]1C(=O)OCC` [Compound 36, ethyl(2S,4S)-1-acryloyl-4-((6-(2,6-dichloro-3,5-dimethoxyphenyl)quinazolin-2-yl)amino)pyrrolidin-2-carboxylate]: the pIC50 in the assay on Hep3B was 7.15.

For `C=CC(=O)N1C[C@@H](Nc2ncc3cc(-c4c(Cl)c(OC)cc(OC)c4Cl)ccc3n2)C[C@H]1C(=O)NC` [Compound 37], the pIC50 is 8.05 on FGFR1 and 6.50 at FGFR4.

As for `C=CC(=O)N1C[C@@H](O)[C@H](Nc2ncc3cc(-c4c(Cl)c(OC)cc(OC)c4Cl)ccc3n2)C1` [Compound 39], the pIC50 is above 8.52 at FGFR1 and 6.50 on FGFR4.

Take `C=CC(=O)N1C[C@H](Nc2ncc3cc(-c4c(Cl)c(OC)cc(OC)c4Cl)ccc3n2)[C@@H](C)C1` [Compound 41]: the pIC50 at FGFR1 was 8.15.

With `C=CC(=O)N1C[C@@H](Nc2ncc3cc(-c4c(Cl)c(OC)cc(OC)c4Cl)ccc3n2)C[C@H]1COC` [Compound 53, 1-((2S,4S)-4-((6-(2,6-dichloro-3,5-dimethoxyphenyl)quinazolin-2-yl)amino)-2-(methoxymethyl)pyrrolidin-1-yl)prop-2-en-1-one], the pIC50 in the assay on RT112/84 was 7.01; in the assay with DMS114 it was 7.09.

`C=CC(=O)N1C[C@@H](Nc2ncc3cc(-c4c(Cl)c(OC)cc(OC)c4Cl)ccc3n2)C[C@H]1C(=O)N1CCCC1` [Compound 55, 1-((2S,4S)-4-((6-(2,6-dichloro-3,5-dimethoxyphenyl)quinazolin-2-yl)amino)-2-(pyrrolidin-1-carbonyl)pyrrolidin-1-yl)prop-2-en-1-one]: the pIC50 in the assay on RT112/84 is 7.27; in the assay on AN3CA it was 7.18; in the assay on DMS114 it was 7.68.

For the compound `C=CC(=O)N1CCC(Nc2ncc3cc(-c4c(Cl)c(OC)cc(OC)c4Cl)ccc3n2)C(C)C1` (stereo not shown) [Compound 61], the pIC50 was 8.22 on FGFR1 and 6.57 at FGFR4.

For the compound `CC#CC(=O)N1CCC[C@H](Nc2ncc3cc(-c4c(Cl)c(OC)cc(OC)c4Cl)ccc3n2)C1` [Compound 62], the pIC50 at FGFR1 is 8.15.

As for `CC#CC(=O)N1CCC(Nc2ncc3cc(-c4c(Cl)c(OC)cc(OC)c4Cl)ccc3n2)CC1` [Compound 63], the pIC50 at FGFR1 is above 8.52; at FGFR4, 6.71.
